According to PMC9269301, “Phytochemical Analysis, Antioxidant, Antimicrobial, and Cytotoxic Activity of Different Extracts of Xanthoparmelia stenophylla Lichen from Stara Planina, Serbia” (Plants, 2022):

System: S. cerevisiae (isolate)
Experiment: Microdilution with resazurin, antifungal
Assay type: cell-based, Saccharomyces cerevisiae
Conditions: extracts and usnic acid
Procedure: The tested methanol, acetone, and n-hexane extracts, as well as the component (usnic acid) of X. stenophylla, were dissolved in 10% dimethyl sulfoxide (DMSO) and then diluted into the nutrient liquid medium. DMSO was obtained from Acros Organics (Fair Lawn, NJ, USA). Resazurin was obtained from Alfa Aesar GmbH & Co. (KG, Karlsruhe, Germany).
The antimicrobial activity of the extracts and components was tested against 19 microorganisms. The experiment involved 15 strains of bacteria (i.e., 6 standard strains: Staphylococcus aureus ATCC 6538, Bacillus subtilis ATCC 6633, Proteus mirabilis ATCC 12453, Pseudomonas aeruginosa ATCC 27853, Klebsiella pneumoniae ATCC 70063, and Escherichia coli ATCC 25922; 9 isolates: Staphylococcus aureus, Escherichia coli, Salmonella enterica, Salmonella Typhimurium, Proteus mirabilis, Klebsiella pneumoniae, Pseudomonas aeruginosa, Bacillus subtilis, and Bacillus cereus). In addition, four fungal strains (i.e., two standard strains: Candida albicans ATCC 10231 and Aspergillus niger ATCC 16888; two isolates: Saccharomyces cerevisiae and Candida albicans) were tested. All isolates were a generous gift from the Institute of Public Health, Kragujevac. The other microorganisms were provided from the collection held by the Microbiology Laboratory Faculty of Science, University of Kragujevac.
The bacterial suspensions were prepared by the direct colony method. The turbidity of the initial suspension was adjusted using a densitometer (DEN-1, BioSan, Riga, Latvia). When adjusted to the turbidity of the 0.5 McFarland’s standard (Andrews, 2005) the bacteria suspension contained approximately 10^8 colony-forming units (CFU)/mL, and the suspension of yeast contained 10^6 CFU/mL; 1:100 dilutions of the initial suspension were additionally prepared in sterile 0.85% saline. The suspensions of fungal spores were prepared by gentle stripping of spores from slopes with growing mycelia. The resulting suspensions were 1:1000 diluted in sterile 0.85% saline.
Antimicrobial activity was tested by determining the minimum inhibitory concentrations (MICs) and minimum microbicidal concentrations (MBCs) using the microdilution plate method with resazurin [56]. The 96-well plates were prepared by dispensing 100 μL of Mueller–Hinton broth for bacteria and Sabouard broth for fungi into each well. A 10 μL aliquot from the stock solution of the tested extract or component was added to the first row of the plate. Then, two-fold serial dilutions were performed using a multichannel pipette. The obtained concentration range was from 10 to 0.08 mg/mL. The method is described in detail in [76]. […]
Minimum microbicidal concentrations were determined by plating 10 μL of samples from wells where no indicator color change or no mycelia growth was recorded on a nutrient agar medium. […]

usnic acid
MFC: 10000 µg/mL | MIC: 5000 µg/mL
